ChEMBL document CHEMBL3046337, “Activity landscape analysis, CoMFA and CoMSIA studies of pyrazole CB1 antagonists” (Med Chem Res, 2013)

Biological target: Cannabinoid receptor 1 (Homo sapiens, UniProt P21554)
Assay: Antagonist activity at CB1 receptor (unknown origin)

Sequence of Cannabinoid receptor 1 (P21554 whole entry): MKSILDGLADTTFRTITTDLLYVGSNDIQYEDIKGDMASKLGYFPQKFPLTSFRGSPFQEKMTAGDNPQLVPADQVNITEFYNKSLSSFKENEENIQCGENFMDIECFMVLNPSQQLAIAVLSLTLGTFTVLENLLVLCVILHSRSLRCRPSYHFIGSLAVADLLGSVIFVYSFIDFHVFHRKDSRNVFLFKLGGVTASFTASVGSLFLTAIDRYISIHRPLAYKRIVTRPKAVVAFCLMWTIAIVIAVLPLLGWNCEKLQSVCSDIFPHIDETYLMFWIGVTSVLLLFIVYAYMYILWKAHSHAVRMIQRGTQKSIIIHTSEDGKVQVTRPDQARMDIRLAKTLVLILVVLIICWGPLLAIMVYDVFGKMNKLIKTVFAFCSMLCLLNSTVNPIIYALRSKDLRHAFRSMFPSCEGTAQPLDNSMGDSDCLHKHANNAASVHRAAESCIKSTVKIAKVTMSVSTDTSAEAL

Structure (SMILES) | Ki [nM]
CCCCCCCn1nc(C(=O)NN2CCCCC2)cc1-c1ccccc1 | 327
CCCCCCCn1nc(C(=O)NN2CCCCC2)c(C)c1-c1ccccc1 | 203
Cc1c(C(=O)NCCO)nn(-c2ccc(Cl)cc2Cl)c1-c1ccc(Br)cc1 | 1120
CCCn1nc(C(=O)NN2CCCCC2)c(C)c1-c1ccccc1 | 3560
COCc1c(C(=O)NC2CCCCC2)nn(-c2ccc(Cl)cc2Cl)c1C1C2(C)CCC(C2)C1(C)C (stereo not drawn) | 241
COc1ccc(-c2c(F)c(C(=O)NN3CCCCC3)nn2-c2ccc(Cl)cc2Cl)cc1 | 18.2
Cc1c(C(=O)NN2CCCCC2)nn(C2CCCCC2)c1-c1ccccc1 | 605
O=C(NN1CCCCC1)c1nn(-c2ccc(Cl)cc2Cl)c2c1CCCc1cc([N+](=O)[O-])ccc1-2 | 63
Cc1c(C(=O)NN2CCCCC2)nn(-c2ccc(Cl)cc2Cl)c1-c1ccc(N)cc1 | 81.5
Cc1c(C(=O)NN2CCCCC2)nn(-c2ccc(Cl)cc2Cl)c1-c1ccc(Br)cc1 | 76.7
CCCCCn1nc(C(=O)NN2CCCCC2)cc1-c1ccccc1 | 256
Cc1c(C(=O)N(C)c2ccccc2)nn(-c2ccc(Cl)cc2Cl)c1-c1ccc(Br)cc1 | 31.1
CCCCCn1nc(C(=O)NN2CCCCC2)c(C)c1-c1ccc(Br)cc1 | 81.8
Cc1c(C(=O)NN2CCOCC2)nn(-c2ccc(Cl)cc2Cl)c1-c1ccc(I)cc1 | 13.2
O=C(NN1CCCCC1)c1nn(-c2ccc(Cl)cc2Cl)c2c1CCCc1c-2cccc1[N+](=O)[O-] | 100
Cc1c(C(=O)NN2CCCCC2)nn(C)c1-c1ccc(Cl)cc1 | 34700
Cc1c(C(=O)NN)nn(-c2ccc(Cl)cc2Cl)c1-c1ccc(Cl)cc1 | 374
Cc1c(C(=O)NCC23CC4CC(CC(C4)C2)C3)nn(CCCCCCl)c1-c1ccccc1 | 6
O=C(NC1CCCCC1)c1nn(-c2ccc(Cl)cc2Cl)c(-c2ccc(Br)cc2)c1CO | 6
Cc1c(NC(=O)N2CCCCC2)nn(-c2ccc(Cl)cc2Cl)c1-c1ccc(Br)cc1 | 47
Cc1c(C(=O)NN2CCOCC2)nn(-c2ccc(Cl)cc2Cl)c1-c1ccccc1Br | 11.7
Cc1c(C(=O)Nc2ccc(-c3ccsc3)cc2)nn(CCCCCCl)c1-c1ccccc1 | 19.8
Cc1ccc(Cn2nc(C(=O)NC3CC4CCC3(C)C4(C)C)c(C)c2-c2ccc(Cl)c(C)c2)cc1 (stereo not drawn) | 400
